The nature of data set [1]: GLP toxicity and pharmacokinetics profile (NIH Roadmap Program). Format: in vivo. The text has this:
7. This same ligand (11) has now been run through the NIH Roadmap Program and a complete GLP toxicity and pharmacokinetics profile is available.

Data set [2] is described as follows: Renal uranium content in uranyl acetate-treated bile duct-cannulated rats (FIG. 3). Format: in vivo, rat. As to the method:
Desferrithiocin Analogue Induced Excretion of Uranium. In order to compare results with previous chelator-induced iron excretion data, the uranium clearance studies were carried out in a bile duct-cannulated rat model. The animals were given uranyl acetate dihydrate SC at a dose of 5 mg/kg (the actual dose of uranium is 2.8 mg/kg). Bile and urine samples were collected for 24 hours after dosing. Kidneys were removed from selected animals and tissue uranium concentration measured. At least three animals were utilized in each experimental group. Data from two separate control studies (uranyl acetate/ no chelator) have now been combined for a total of 14 control animals. All uranium concentrations were measured using ICPMS. The data are reported as the total quantity of uranium excreted [urine +bile]; the mode of excretion [urine/bile] is also given. In addition the percentage of the administered dose of uranium cleared and chelator-induced uranium excretion vs the controls is also given. Four positive controls were evaluated: DTPA (13, Table 1) given as its trisodium calcium salt, DFO (14), N,N′-bis(2hydroxybenzyl)ethylenediamine-N,N′-diacetic acid, monosodium salt (NaHBED, 15) and the hydroxypyridone CP94 (16) shown to bind uranium [Pashalidis, et al., Effective complex formation in the interaction of 1,2-dimethyl-3-hydroxypyrid-4-one (Deferiprone or L1) with uranium(VI), Journal of Radioanalytical and Nuclear Chemistry 1999; 242:181-184.] The total metal cleared after 24 h in control rats was 10% of the administered dose. When DTPA, 13, was given IP or PO at 300 μmol/kg immediately after uranium, the excretion was 17% and 8% of the administered dose respectively (p>0.05). However, when the drug was given IP at a dose of 600 μmol/kg immediately post-metal, the uranium excretion was significant, 20% (p<0.005). This is consistent with previously published data using a similar animal model.[Domingo, et al., Comparative effects of the chelators sodium 4,5-dihydroxybenzene-1,3-disulfonate (Tiron) and diethylenetriaminepentaacetic acid (DTPA) on acute uranium nephrotoxicity in rats, Toxicology 1997; 118:49-59] DFO (14) and CP94 (16) given IP immediately post uranyl acetate were ineffective.
The most promising analogue in the (S)-2-(2,4-dihydroxyphenyl)-4,5-dihydro-4-thiazolinecarboxylic series is the methoxy analogue (S)-4′-(CH3O)-DADMDFT (11). Given IP at 300 μmol/kg 0.5 h before uranyl acetate or immediately thereafter, nearly 30% of the metal was cleared (Table 1). This was also true if the drug was given IP 0.5 or 2 h post metal. The drug retains some efficacy given 4 h post uranium; 16% of the metal is excreted (p<0.006). When the chelator was given SC immediately post uranium, 40% of the administered metal was cleared. The increased excretion is probably associated with a slower absorption of the ligand. The data from rodents given the drug orally is even more encouraging (Table 1). […] The most profound data are associated with uranium decorporation from the kidneys (FIG. 3). When DTPA is given IP or PO at a dose of 300 μmol/kg immediately post metal, there is no reduction in renal uranium relative to controls. However, (S)-4′-(CH3O)-DADMDFT (11) given orally at a dose of 300 μmol/kg immediately post metal reduces renal uranium by 37% (p<0.005).
There is a small (16%) reduction when the drug is given PO at a dose of 300 μmol/kg 2 h post uranium. However, when 11 is given PO at a dose of 600 μmol/kg 0.5 h post metal, the renal uranium content is reduced by 76% (p<0.001). When given PO at the same dose 1 h post uranium exposure, the reduction is still significant, 42% (p<0.006). In all sets of ligands, the most lipophilic chelator is always the most toxic. […] On the basis of this finding, a less lipophilic, more water-soluble ligand than 12 was assembled, (S)-4′-(HO)-DADFT-PE (18, Table 1), a polyether analogue.

For data set [3] the following is noted: in vivo; cited from earlier work.
Data set [4] can be described thus: Chelator-induced uranium excretion (urine + bile, 24 h) in bile duct-cannulated rat model. Format: in vivo. In short, it runs like this: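 Bile duct-cannulated rats received uranyl acetate dihydrate subcutaneously at 5 mg/kg, equal to 2.8 mg/kg uranium, and were then given a chelator. Urine and bile were collected for 24 hours and uranium was quantified by ICPMS. Results give total uranium excreted (urine + bile), the urine/bile split, the percentage of the administered dose cleared, and excretion relative to 14 pooled uranyl acetate-only controls. Each group had at least three animals.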

Structures are written as SMILES.

Consider `COc1ccc(C2=N[C@@H](C(=O)O)CS2)c(O)c1` [Compound 11, (S)-2-(2-hydroxy-4-methoxyphenyl)-4,5dihydro-4-thiazolecarboxylic acid], for which the no-observed-adverse-effect-level result in data set [1] is listed as “well within the range of expected human dosing requirements”. Further, the “reduction in renal uranium” value in data set [2] (PO 300 μmol/kg 2 h post uranium) is listed as 16%. Moreover, in data set [2] (PO 300 μmol/kg immediately post metal), the “reduction in renal uranium relative to controls” value came to 37%. Moreover, the “reduction in renal uranium content” value in data set [2] (PO 600 μmol/kg 0.5 h post metal) worked out at 76%; in data set [2] (PO 600 μmol/kg 1 h post uranium exposure), 42%. Moreover, the “metabolite formed by metabolic O-demethylation” value in data set [3] is on record as “(S)-4′-(HO)-DADMDFT (9)”. Further, the “% of Administered Dose Cleared” value is on record as ~30% in data set [4] (300 μmol/kg IP 0.5 h Post); ~30% in data set [4] (300 μmol/kg IP 0.5 h Post, listed as (S)-4′-(CH3O)-DADMDFT); ~30% in data set [4] (300 μmol/kg IP 0.5 h Pre); ~30% in data set [4] (300 μmol/kg IP 0.5 h Pre, listed as (S)-4′-(CH3O)-DADMDFT); ~30% in data set [4] (300 μmol/kg IP 2 h Post); 16% in data set [4] (300 μmol/kg IP 4 h Post). Further, the “% of Administered Dose Cleared” value in data set [4] (300 μmol/kg IP Immediate) is ~30%; in data set [4] (300 μmol/kg PO 2 h Post), 18%; in data set [4] (300 μmol/kg PO Immediate) it was 23%; in data set [4] (300 μmol/kg SC Immediate) it was 40%; in data set [4] (600 μmol/kg PO 0.5 h Post) it was 25%; in data set [4] (600 μmol/kg PO 1 h Post) it was 26%.

Source of the values: patent US20100137346A1, “DESFE[…] ACTINIDE DEC[…]” (priority 2006, published 2010).
